Tested on: peripheral serotonin production
Assay: Pilot study of tryptophan hydroxylase inhibitors on peripheral serotonin production in ovariectomized mice, Example 12
Assay type: in vivo
Conditions: pCPA used as control; FIG. 15
Description: 6-week old C57Bl/6 inbred female mice, weighing 12-14 g, were used in the experiments. Animals were housed under 12 h light/12 h dark conditions in a room with controlled temperature (22° C.) and humidity (60%). Mice had ad libitum access to food and water, and were used after a minimum of 4 days of acclimatization to the housing conditions. All experiments were conducted following Columbia University Guidelines for the Animal Use and Care of laboratory mice.
Animals were separated into different groups one day prior to the experiments. Mice were ovariectomized (OVX) under anaesthesia (Avertin). Compounds were fed orally (Gavage) twice a day at 1700 h and at 1100 h for the pilot study while for the long term study compounds were given at 1700 h once a day. […] This route creates two potential barriers for the compound to reach the brain. […] Control animals received the same volume of vehicle. Blood was collected through heart puncture on isofluorane-anaesthesized animals, allowed to clot for 5 minutes on ice and then serum was separated, snap chilled in liquid nitrogen and frozen at −80° C. till analyzed. Mice were observed daily for any physical or behavioral abnormality during the course of investigation.
• Group 1: Vehicle • Group 2: Compound 1 • Group 3: Compound 2 • Group 4: Compound 3 • Group 5: Compound 4 (LP-533401) Experiment II: Effect of Compounds 1 and 4 on Protection from OVX-Induced Bone Loss Protocol 1: Gavage Feeding of the Compounds Will be Started 1 Day after OVX for 6 Weeks • Group 1: Sham treatment • Group 2: OVX • Group 3: OVX+Compound 1 (250 mg/kg) • Group 4: OVX+Compound 1 (500 mg/kg) • Group 5: OVX+Compound 4 (250 mg/kg) Protocol 2: Gavage Feeding of the Compounds Will be Started 2 Weeks after OVX for 6 Weeks • Group 1: Sham treatment • Group 2: OVX • Group 3: OVX+Compound 1 (250 mg/kg) • Group 4: OVX+Compound 1 (500 mg/kg) • Group 5: OVX+Compound 4 (250 mg/kg) Protocol 3: Gavage Feeding of the Compounds Will be Started 4 Weeks after OVX for 6 Weeks • Group 1: Sham treatment • Group 2: OVX • Group 3: OVX+Compound 1 (250 mg/kg) • Group 4: OVX+Compound 1 (500 mg/kg) • […] Serotonin Measurement in Serum
The Serotonin ELISA kit obtained from the Fitzgerald company was used to measure derivatized serotonin from serum. Derivatization is part of the sample preparation. Serotonin present in the serum was first quantitatively acylated using the acylation reagent into N-Acylserotonin. The principle of the assay is based on competitive ELISA, wherein serotonin that is bound to the solid phase of the plate and the N-acylserotonin compete for the fixed number of antiserum binding sites. When the reaction is in equilibrium, free antigen and free antigen-antiserum complexes are removed by washing. The antibody bound to the solid phase serotonin is then detected by anti-rabbit/peroxidase. The substrate TMB/Peroxidase reaction is read at 450 nm. The amount of antibody bound to the solid phase serotonin is inversely proportional to the concentration of serotonin in the sample.
We used Catechol-3,6-bis methyleneiminodiacetic acid [(CBMIDA) Compound 1: basic structure is a EDTA-like compound and the catechol ring is at the center)] synthesized at the Columbia University Chemistry division and para-Chlorophenylalanine (pCPA) obtained from Sigma Aldrich Corp. for our experiments. Compounds were dissolved with twice molar solution of NaHCO3 in water and given to mice orally at 250 and 500 mg/kg/dose. Compounds 2 and 3 were dissolved in water.

Compound: NC(Cc1ccc(Cl)cc1)C(=O)O (stereo not shown) [pCPA, para-chlorophenylalanine]
- serotonin levels decreased to % below normal range: 60%

— patent US8759364B2, “Methods of treating bone mass diseases” (The Trustees of Columbia University in the City of New York, priority 2008, dated 2014)
